The record followed here is patent US11680047B2, “Enhanced erythropoiesis and iron metabolism” (FibroGen, Inc., priority 2003, dated 2023).

One experiment concerns rat model of ACD. In words: Rat model of ACD (PG-PS), Experimental Series 2. The class given is in vivo. On the procedure:
Female Lewis rats (approximately 150-200 gm) were injected with PG-PS (intra-peritoneal). Arthritis and anemia were allowed to develop for 28 days. Animals were administered compound A by oral gavage twice a week (Monday and Thursday) for six weeks, corresponding to days 28, 31, 35, 38, 42, 45, 49, 52, 56, 59, 63, 66, and 70 from PG-PS injection.
Whole blood was collected via the tail vein for CBC analysis on days 28, 42, 56, and 70. In addition, serum was collected on day 70 for iron binding analysis. CBC and iron binding analysis were performed by Quality Clinical Labs (Mountain View, Calif.).
Patients with anemia of chronic disease are clinically characterized by reduced plasma iron concentrations and transferrin saturation. The effect of the present compounds on serum iron and transferrin saturation in normal and anemic animals was determined. Using an animal model of anemia of chronic disease, anemia was induced in rats by IP injection of peptidoglycan-polysaccharide polymers, as described above. Arthritis and anemia were allowed to develop for 28 days. Animals were then treated with various concentrations of compound A, twice weekly, for 6 weeks. Serum iron levels and transferrin saturation were determined by Quality Clinical Labs.

In another experiment the test system is healthy human volunteers. In words: Erythropoiesis and iron status in healthy human volunteers. The class given is in vivo. Conditions: human subjects; for soluble transferrin receptor levels, maximum response: day 21. From the text:
The effect of prolyl hydroxylase inhibition on erythropoiesis in human subjects was examined as follows. […] At various times following compound administration, blood was drawn for analysis of EPO, hemoglobin, hematocrit, red blood cell counts, soluble transferrin receptor, and serum ferritin levels.

The mark [1] stands for this setting: anemic rats, twice a week for six weeks.

Structures are written as SMILES.

With `O=C(O)CNC(=O)c1nc(Cl)c2ccccc2c1O` [Compound A, [(1-Chloro-4-hydroxy-isoquinoline-3-carbonyl)-amino]-acetic acid], in the experiment with rat model of ACD (anemic (PG-PS) and non-anemic control (sham) rats, twice weekly, 6 weeks), the serum iron levels result is “increased serum iron levels”. In addition, the hemoglobin levels result was “hemoglobin levels increased” in the experiment on rat model of ACD (anemic rats, 10 mg/kg, 20 mg/kg or 40 mg/kg twice weekly) and “approximately 110 % of that in non-treated control animals” in the experiment with rat model of ACD (non-anemic rats, 40 mg/kg twice a week). For the same compound, in the experiment with rat model of ACD (anemic rats, from 2 weeks, over the 6 week period), the “red blood cell counts” value is listed as “red blood cell counts were increased”. The hematocrit levels entry was “increased hematocrit levels” in the experiment on rat model of ACD (anemic rats, oral gavage twice a week); “greater than 110 % of that in non-challenged non-treated animals” in the experiment on rat model of ACD (non-challenged (non-anemic) rats, 40 mg/kg twice a week); “greater than 46%” with healthy human volunteers (twice weekly for three weeks). For the same compound, the “mean corpuscular hemoglobin levels” value in the experiment with rat model of ACD (setting [1]) was “reduction in the decrease in mean corpuscular hemoglobin levels”. Further, the mean corpuscular volume entry in the experiment on rat model of ACD (setting [1]) is given as “reduction of the decrease in mean corpuscular volume”. In the experiment with rat model of ACD (vs non-treated non-anemic and non-treated anemic rats, twice weekly, 6 weeks), the transferrin saturation entry is on record as “increased transferrin saturation”. Moreover, the “red blood cell count” value in the experiment with healthy human volunteers (20 mg/kg twice weekly or three-times per week) is reported as “increased red blood cell count in human subjects”. Also, the figures for the “soluble transferrin receptor levels, maximum response” value in the experiment on healthy human volunteers (2-times per week) and in the experiment with healthy human volunteers (3-times per week) were 35% and 31%, respectively. Moreover, the “decrease of serum ferritin levels” value in the experiment on healthy human volunteers (oral 20 mg/kg) is listed as “approximately 46%”. Besides, the Reticulocyte levels with healthy human volunteers (oral 20 mg/kg twice or three-times weekly) is given as > 1.7 % of red blood cells.
